Source: publication PMC10691846 (Protein & Cell, 2023)

T1: Escherichia coli CydD (Escherichia coli, UniProt P29018 1-588)
T1 construct: CydD, subunit of the ABC transporter CydDC of Escherichia coli; also called EcCydD; source: purified as the EcCydDC complex
T1 sequence: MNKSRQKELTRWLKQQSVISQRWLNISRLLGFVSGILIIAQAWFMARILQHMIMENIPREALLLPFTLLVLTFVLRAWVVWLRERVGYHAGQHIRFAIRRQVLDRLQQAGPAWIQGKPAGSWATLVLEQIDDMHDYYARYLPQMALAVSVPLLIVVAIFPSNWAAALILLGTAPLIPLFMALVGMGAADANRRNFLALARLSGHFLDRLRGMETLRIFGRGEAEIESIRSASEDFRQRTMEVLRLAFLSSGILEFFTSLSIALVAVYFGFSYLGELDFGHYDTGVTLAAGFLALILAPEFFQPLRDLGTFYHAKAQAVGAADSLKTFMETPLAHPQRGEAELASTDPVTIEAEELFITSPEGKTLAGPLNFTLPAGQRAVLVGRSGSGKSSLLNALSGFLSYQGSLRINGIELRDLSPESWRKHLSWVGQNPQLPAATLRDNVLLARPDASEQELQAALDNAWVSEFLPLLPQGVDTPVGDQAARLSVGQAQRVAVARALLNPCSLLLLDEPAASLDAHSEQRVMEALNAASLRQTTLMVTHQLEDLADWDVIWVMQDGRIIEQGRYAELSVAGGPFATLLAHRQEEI


Legend:
[1] = target: T2, EcCydDC (Escherichia coli, UniProt P23886+P29018); assay: cryo-EM structure of the complex; assay type: binding; settings: ATP-bound occluded state
T2 construct: gene cydC; purified CydC-CydD heterodimer

[2] = target: T3, MsCydDC (Mycolicibacterium smegmatis, UniProt A0QXA6+A4ZHS8); assay: ATPase activity assay; assay type: biochemical; settings: Arg326 of CydC Linking-beta2 Loop sandwiches the adenosine ring at the CydC NBD
T3 construct: gene MSMEG3240; purified CydC-CydD heterodimer

[3] = target: T3, MsCydDC; assay: ATPase activity assay; assay type: biochemical; settings: Arg85 of CydD ICL1 stabilizes the adenosine ring at the CydD NBD
[4] = target: T3, MsCydDC; assay: cryo-EM structure of the complex; assay type: binding; settings: Mg2+; ATP in the NBDs of CydC and CydD; outward-facing state
[5] = target: T3, MsCydDC; assay: ATPase activity assay; assay type: biochemical; settings: Arg324 of CydC Linking-beta2 Loop sandwiches the adenosine ring at the CydC NBD
[6] = target: T1, Escherichia coli CydD; assay: cryo-EM structure; purified CydDC complexes; MsCydDC in apo and ATP-bound states, EcCydDC in heme-loading and ATP-bound states; settings: both partners purified

T3 sequence (A0QXA6 entry or part of it): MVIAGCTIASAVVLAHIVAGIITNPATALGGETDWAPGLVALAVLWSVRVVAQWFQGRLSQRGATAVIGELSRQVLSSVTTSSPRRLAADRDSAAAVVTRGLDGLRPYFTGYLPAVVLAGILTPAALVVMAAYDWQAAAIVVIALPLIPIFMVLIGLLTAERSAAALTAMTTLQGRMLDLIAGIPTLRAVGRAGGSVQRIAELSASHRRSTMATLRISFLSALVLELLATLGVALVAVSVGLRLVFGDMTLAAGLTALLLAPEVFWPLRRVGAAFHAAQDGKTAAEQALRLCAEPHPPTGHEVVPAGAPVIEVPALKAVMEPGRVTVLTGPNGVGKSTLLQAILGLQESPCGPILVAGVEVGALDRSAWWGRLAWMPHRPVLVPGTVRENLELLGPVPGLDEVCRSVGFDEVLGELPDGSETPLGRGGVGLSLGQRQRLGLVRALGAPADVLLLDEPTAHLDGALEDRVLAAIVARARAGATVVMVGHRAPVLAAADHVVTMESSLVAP
T3 sequence (A4ZHS8 entry or part of it): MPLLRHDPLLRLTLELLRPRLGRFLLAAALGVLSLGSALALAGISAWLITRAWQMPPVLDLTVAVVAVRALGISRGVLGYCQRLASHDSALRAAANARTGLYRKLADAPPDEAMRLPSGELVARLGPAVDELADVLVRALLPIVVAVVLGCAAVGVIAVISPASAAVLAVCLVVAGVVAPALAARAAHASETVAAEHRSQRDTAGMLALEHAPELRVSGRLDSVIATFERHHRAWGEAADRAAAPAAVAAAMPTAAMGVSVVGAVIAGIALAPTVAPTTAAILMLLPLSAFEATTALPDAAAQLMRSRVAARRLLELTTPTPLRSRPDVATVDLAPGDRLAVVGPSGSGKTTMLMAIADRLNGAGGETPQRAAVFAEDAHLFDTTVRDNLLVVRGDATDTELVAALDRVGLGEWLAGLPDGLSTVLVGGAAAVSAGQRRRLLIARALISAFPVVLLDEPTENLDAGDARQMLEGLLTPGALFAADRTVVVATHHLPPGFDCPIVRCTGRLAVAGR

Molecule | cryo-EM structure of the complex [1] | ATPase activity [2] | ATPase activity [3] | cryo-EM structure of the complex [4] | ATPase activity [5] | binding result [6]
Nc1ncnc2c1ncn2[C@@H]1O[C@H](COP(=O)(O)OP(=O)(O)OP(=O)(O)O)[C@@H](O)[C@H]1O [ATP] | We then determined the Cryo-EM structures of CydDC from Msm or E. coli | a single mutation of any of these Arg residues significantly affected the ATPase activity | a single mutation of any of these Arg residues significantly affected the ATPase activity | the adenosine ring of ATP is stabilized by the sidechain of Arg85 from ICL1 | a single mutation of any of these Arg residues significantly affected the ATPase activity | –
Escherichia coli CydC (natural protein, CydC, subunit of the ABC transporter CydDC of Escherichia coli; also called EcCydC; source: purified as the EcCydDC complex) MRALLPYLALYKRHKWMLSLGIVLAIVTLLASIGLLTLSGWFLSASAVAGVAGLYSFNYMLPAAGVRGAAITRTAGRYFERLVSHDATFRVLQHLRIYTFSKLLPLSPAGLARYRQGELLNRVVADVDTLDHLYLRVISPLVGAFVVIMVVTIGLSFLDFTLAFTLGGIMLLTLFLMPPLFYRAGKSTGQNLTHLRGQYRQQLTAWLQGQAELTIFGASDRYRTQLENTEIQWLEAQRRQSELTALSQAIMLLIGALAVILMLWMASGGVGGNAQPGALIALFVFCALAAFEALAPVTGAFQHLGQVIASAVRISDLTDQKPEVTFPDTQTRVADRVSLTLRDVQFTYPEQSQQALKGISLQVNAGEHIAILGRTGCGKSTLLQQLTRAWDPQQGEILLNDSPIASLNEAALRQTISVVPQRVHLFSATLRDNLLLASPGSSDEALSEILRRVGLEKLLEDAGLNSWLGEGGRQLSGGELRRLAIARALLHDAPLVLLDEPTEGLDATTESQILELLAEMMREKTVLMVTHRLRGLSRFQQIIVMDNGQIIEQGTHAELLARQGRYYQFKQGL | – | – | – | – | – | binds
